Reference: patent US20240342071A1, “HEXAPEPTIDE,COSMETIC COMPOSITION OR PHARMACEUTICAL COMPOSITION CONTAINING SAME, AND USE OF HEXAPEPTIDE” (SHENZHEN WINKEY TECHNOLOGY CO., LTD, priority 2021, published 2024)

Columns and labels:
[1] = test system: HaCaT cells; test: Cell viability assay (MTT) on HaCaT cells; type: cell-based, Human; details: 72 h; for toxicity to HaCaT cells: 100 ppm, compared with the control group
From the text: Phosphate-buffered saline (PBS) (Gibco), thiazolyl blue (MTT) (Sigma), dimethyl sulfoxide (DMSO) (Sigma), a high glucose culture medium (DMEM) (Gibco), and fetal bovine serum (Gibco).
Human keratinocytes (HaCaT) were purchased from the Kunming Cell Bank of China Center for Type Culture Collection under the Chinese Academy of Sciences.
The peptide Ac-Phe-Phe-Trp-Phe-His-Val-NH2 (hereinafter referred to as the reference peptide) at a test concentration of 1 ppm, 10 ppm, 50 ppm, and 100 ppm respectively; • the peptide (5) at a test concentration of 1 ppm, 10 ppm, 50 ppm, and 100 ppm, respectively; • the peptide (11) at a test concentration of 1 ppm, 10 ppm, 50 ppm, and 100 ppm, respectively; • the peptide (17) at a test concentration of 1 ppm, 10 ppm, 50 ppm, and 100 ppm, respectively. Control group: • PBS blank control.
The frozen HaCaT cells were cultured and passaged at a ratio of 1:2 to about the 5th generation, and the cells in better growth were selected as experiment subjects.
The cells were inoculated in a 96-well plate at 2000 cells/well. After the cells adhered to the wall, samples of the drug groups and the control group were added according to the multiple dilution method, supplemented with a culture medium to 200 μL, and incubated in a 5% CO2 incubator at 37° C. for 72 h.
Then 22 μL 5 mg/ml MTT was added to each well and the incubation was continued in the 5% CO2 incubator at 37° C. for 4 h. The original solution was removed and 150 μL/well DMSO was added. After 5 min, the microplate reader was used to read the reference OD values at 490 nm and 630 nm wavelengths.
The MTT assay is a method of detecting cell survival and growth. The control group is taken as a reference value. Four dosage concentrations were set from high to low for each sample, and cell viability assays were carried out on HaCaT cells. The measured OD values are directly proportional to cell viability.

[2] = test system: TNF-α; test: Anti-inflammatory cell assay: TNF-α ELISA in LPS-stimulated RAW 264.7 cells; type: cell-based, Mouse; details: 200 ng/mL LPS; for effect on TNF-α expression compared with the positive drug dexamethasone: 100 ppm peptide vs 50 ng/ml dexamethasone, RAW 264.7; for TNF-α expression: 100 ppm, RAW 264.7, 48 h, vs LPS alone
Protocol: (§1) Fetal bovine serum, DMEM culture medium, penicillin, streptomycin, an IL-6 ELISA kit and a TNF-α ELISA kit.
(§2) Mouse monocyte macrophages (RAW 264.7 cells).
(§3) 100 ppm of the reference peptide, 100 ppm of the peptide (5), 100 ppm of the peptide (11), and 100 ppm of the peptide (17); the peptides were dissolved with a PBS solution, respectively.
(§4) The frozen RAW 264.7 cells were cultured and passaged at a ratio of 1:2 to about the 5th generation, and the cells in better growth were selected as experiment subjects.
(§5) A cell suspension was diluted properly and inoculated on a 6-well plate at 100,000 cells/well. When the cells were about 80% confluent, an LPS-stimulated inflammation model was established. A blank control group (control), a LPS group, a dexamethasone group (DXM), and polypeptide groups were set. The blank control group was supplemented with the culture medium to 1000 μL; in the LPS group, 200 ng/mL LPS was added, and supplemented with the culture medium to 1000 μL; in the dexamethasone group, 200 ng/mL LPS and 50 ng/ml dexamethasone were added, and supplemented with the culture medium to 1000 μL; in the polypeptide groups, 200 ng/mL LPS and a polypeptide were added, and supplemented with culture medium to 1000 μL (the final test concentration of the polypeptide was 100 ppm). The above groups were further incubated in a 5% CO2 incubator at 37° C. for 48 h. The solutions were centrifuged at 3000 rpm for 15 min, in each of which a cell supernatant was collected to obtain a sample liquid. Operations were performed according to the instructions of the IL-6 and TNF-α ELISA kits.
(§6) Inflammatory factors such as TNF-α and IL-6 can cause the body's immune overresponse, leading to skin ulcers, redness and other problems. Therefore, inhibiting inflammatory factors such as TNF-α and IL-6 secreted by monocytes in the skin can achieve anti-inflammatory and repairing effects. An inflammation model was established by stimulating RAW 264.7 cells with 200 ng/mL LPS to investigate the anti-inflammatory and repairing effects of the peptides of the present invention.

[3] = test system: IL-6; test: Anti-inflammatory cell assay: IL-6 ELISA in LPS-stimulated RAW 264.7 cells; type: cell-based, Mouse; details: 100 ppm, 200 ng/mL LPS, RAW 264.7, 48 h, vs LPS alone
Protocol: as §1, §2, §3, §4, §5, §6

Substance | toxicity to HaCaT cells [1] | effect on TNF-α expression compared with the positive drug dexamethasone [2] | TNF-α expression [2] | expression of IL-6 [3] | proliferation effects on cells ([1]; HaCaT, 50 ppm)
Ac-FFWFHG-NH2 [peptide (17), Ac-Phe-Phe-Trp-Phe-His-Gly-NH2] | no toxicity | equivalent to that of the positive drug dexamethasone, or having even more excellent effects than dexamethasone | significantly down-regulated | significantly down-regulated | 
Ac-FFWFHL-NH2 [peptide (11), Ac-Phe-Phe-Trp-Phe-His-Leu-NH2] | no toxicity | equivalent to that of the positive drug dexamethasone, or having even more excellent effects than dexamethasone | significantly down-regulated | significantly down-regulated | 
Ac-FFWFHV-NH2 [reference peptide, Ac-Phe-Phe-Trp-Phe-His-Val-NH2, reference compound] | no toxicity | equivalent to that of the positive drug dexamethasone, or having even more excellent effects than dexamethasone | significantly down-regulated | significantly down-regulated | significant proliferation effects
Ac-FFWFKV-NH2 [peptide (5), Ac-Phe-Phe-Trp-Phe-Lys-Val-NH2] | no toxicity |  |  |  | 
